Test systems include CAKI-1 renal; UO-31 renal; SK-OV-3 ovarian; OVCAR-3 ovarian; ACHN renal; KM12 colon; SF-539 CNS; HS 578T breast; DU-145 prostate; SF-268 CNS.
Assay in all cases: NCI anticancer screen, dose series, 48 h

Values joined by “and” are separate entries in the source; they are usually repeats but may differ in a detail not shown here. Equal entries are not always repeated.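 Compound exposure: 48 hours, 5 concentrations, 96-well plates. Abbreviation: GI50, concentration required for 50% inhibition of growth. The concentration for full growth arrest is given as TGI.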

Consider `COc1ccc(OCC(=O)O)c2c1CCC(C(C)C)C2=O` (configuration not stated), for which the TGI in the assay with CAKI-1 renal, in the assay with UO-31 renal, with SK-OV-3 ovarian, in the assay with OVCAR-3 ovarian, in the assay on ACHN renal and with KM12 colon was over 100 µM in each case. In the assay on SF-539 CNS, this compound registered a TGI of over 100 µM.

With `Cc1ccc(C)c(NC(=O)C(=O)C(c2cnc3ccc([N+](=O)[O-])cc3n2)[N+](=O)[O-])c1` (configuration not stated), the TGI in the assay with HS 578T breast, with DU-145 prostate, in the assay with UO-31 renal, with SK-OV-3 ovarian, with SF-268 CNS and in the assay on OVCAR-3 ovarian was over 100 µM throughout. In addition, the TGI in the assay on ACHN renal, with KM12 colon and in the assay with SF-539 CNS was over 100 µM throughout.

For the compound `CN(C)/[N+]([O-])=N/Oc1cc(Nc2cccc(C(=O)O)c2)c([N+](=O)[O-])cc1[N+](=O)[O-]`, the GI50 in the assay with HS 578T breast is 34.7 µM; with CAKI-1 renal, over 100000 nM; in the assay with DU-145 prostate, over 100 µM; with UO-31 renal, over 100 µM; with SF-268 CNS, 30 µM; in the assay with OVCAR-3 ovarian it was 5.45 µM. Besides, the values for the GI50 in the assay with ACHN renal, in the assay on KM12 colon and in the assay on SF-539 CNS were over 100 µM, 86.7 µM and over 100 µM, respectively. Further, the TGI is over 100 µM with HS 578T breast; over 100 µM with CAKI-1 renal; over 100 µM with DU-145 prostate; over 100 µM in the assay on UO-31 renal; 78.5 µM with SF-268 CNS; 22.7 µM in the assay with OVCAR-3 ovarian. Further, the TGI with ACHN renal, in the assay with KM12 colon and in the assay on SF-539 CNS was over 100 µM throughout.

For the compound `CN/N=C(/Cc1occc(=O)c1O)C(=O)Nc1ccc(C)c(C)c1`, the TGI with CAKI-1 renal, with UO-31 renal, in the assay with SK-OV-3 ovarian, with SF-268 CNS, in the assay with OVCAR-3 ovarian and in the assay on ACHN renal was over 100 µM throughout. The TGI in the assay on KM12 colon and in the assay with SF-539 CNS was over 100 µM each time.

For the compound `COC(=O)C1(C)C=C(Nc2ccccc2)C(=O)N1c1ccccc1` (configuration not stated), the TGI with CAKI-1 renal, with UO-31 renal, with SK-OV-3 ovarian, in the assay with SF-268 CNS, in the assay with OVCAR-3 ovarian and with ACHN renal was over 100 µM throughout. The TGI with KM12 colon and in the assay with SF-539 CNS was over 100 µM each time.

For the compound `O=C1C2C(C(=O)N1O)N(Cc1ccccc1)C(=O)N2Cc1ccccc1` (configuration not stated), the TGI with CAKI-1 renal, in the assay on UO-31 renal, with SK-OV-3 ovarian, in the assay with SF-268 CNS, with OVCAR-3 ovarian and with ACHN renal was over 100 µM each time. For the same compound, the TGI in the assay on KM12 colon and in the assay on SF-539 CNS was over 100 µM throughout.

Turning to `C/C(CN1C(=O)c2ccccc2C1=O)=N\NS(=O)(=O)c1cccc([N+](=O)[O-])c1`, the TGI with CAKI-1 renal, in the assay on UO-31 renal, in the assay with SK-OV-3 ovarian, in the assay on SF-268 CNS, in the assay with OVCAR-3 ovarian and in the assay with ACHN renal was over 100 µM in each case. In addition, the TGI in the assay with KM12 colon and in the assay on SF-539 CNS was over 100 µM throughout.

As to `O=C1c2ccccc2-c2c1c1ccccc1c(=O)n2Cc1ccco1`, the TGI with HS 578T breast, with CAKI-1 renal, in the assay on DU-145 prostate, in the assay on UO-31 renal, in the assay on SK-OV-3 ovarian and in the assay with SF-268 CNS was over 100 µM in each case. The TGI in the assay on OVCAR-3 ovarian, in the assay on KM12 colon and with SF-539 CNS was over 100 µM in each case.

Regarding `CCOC(=N)CC(=O)Nc1ccc(Cl)cc1`, the TGI in the assay with CAKI-1 renal, in the assay with UO-31 renal, in the assay on SK-OV-3 ovarian, with SF-268 CNS, in the assay with OVCAR-3 ovarian and with ACHN renal was over 100 µM each time. Further, the TGI in the assay on KM12 colon and with SF-539 CNS was over 100 µM in each case.

Take `O=C(CCN1CCN(c2cccc(Cl)c2)CC1)N1CCc2c([nH]c3ccccc23)C1c1cccnc1` (configuration not stated): the TGI was 14.3 µM in the assay with CAKI-1 renal; 16.2 µM in the assay with UO-31 renal; 28.8 µM in the assay with SK-OV-3 ovarian; 8.77 µM and 20.1 µM in the assay on OVCAR-3 ovarian; 21.6 µM with ACHN renal; 15.9 µM with KM12 colon. Further, the TGI in the assay with SF-539 CNS came out at 31.2 µM. Besides, the GI50 in the assay with UO-31 renal was 4.7 µM; in the assay on SK-OV-3 ovarian it was 13.4 µM; in the assay on OVCAR-3 ovarian, 7.67 µM; in the assay on ACHN renal, 6.34 µM; with KM12 colon it was 5.04 µM.

On to `COc1cccc(N2C(=O)c3c(c4[nH]c5ccccc5c4c4ccc(C(C)(C)C)cc34)C2=O)c1`, for which the TGI in the assay on CAKI-1 renal, with UO-31 renal, with SK-OV-3 ovarian, with SF-268 CNS, in the assay with OVCAR-3 ovarian and with ACHN renal was over 100 µM in each case. The TGI with KM12 colon and in the assay with SF-539 CNS was over 100 µM throughout.

For the compound `CC(C(=O)N1C(=O)N(C(=O)C(C)C(O)c2ccccc2)C(c2ccccc2)C1c1ccccc1)C(O)c1ccccc1` (configuration not stated), the TGI in the assay on HS 578T breast was 95.1 µM; in the assay with DU-145 prostate it was over 100 µM; in the assay with UO-31 renal, 41.1 µM; in the assay on SF-268 CNS, over 100 µM; in the assay with OVCAR-3 ovarian it was 31.5 µM; in the assay with ACHN renal it was over 100 µM. The TGI in the assay with KM12 colon is 5.69 µM; with SF-539 CNS, 22.6 µM.

For the compound `COc1ccc2[nH]cc(CCNC(C)=O)c2c1`, the TGI in the assay with CAKI-1 renal, with UO-31 renal, with SK-OV-3 ovarian, with SF-268 CNS, in the assay on OVCAR-3 ovarian and in the assay with ACHN renal was over 100 µM in each case. Moreover, the TGI in the assay with KM12 colon and in the assay on SF-539 CNS was over 100 µM each time.

As to `CC/C=C\C[C@H](O)C/C=C1/C(=O)C=C[C@@H]1C/C=C\CCCC(=O)NC(C)C`, the GI50 in the assay with HS 578T breast is 7.74 µM; in the assay with CAKI-1 renal, 2080 nM; in the assay on DU-145 prostate, 3.22 µM; with UO-31 renal, 1.94 µM; with SK-OV-3 ovarian, 4.57 µM; with SF-268 CNS it was 3 µM. Moreover, the values for the GI50 with OVCAR-3 ovarian, with ACHN renal and in the assay with KM12 colon were 2.63 µM, 1.84 µM and 1.91 µM, respectively. Further, the TGI with HS 578T breast is 49.5 µM; with CAKI-1 renal, 4.39 µM; in the assay with DU-145 prostate it was 13.5 µM; in the assay on UO-31 renal it was 4.11 µM; in the assay with SK-OV-3 ovarian it was 14.8 µM; in the assay with SF-268 CNS it was 13.3 µM. The values for the TGI in the assay with OVCAR-3 ovarian, in the assay on ACHN renal and with KM12 colon were 8.41 µM, 3.49 µM and 4.89 µM, respectively.

The record behind these values is PubChem BioAssay (NCI).
